Reference: patent US7521444B2, “Compounds for the treatment of hepatitis C” (Bristol-Myers Squibb Company, priority 2007, dated 2009)

Key:
[1] = tested on: HCV replicon cells; assay: HCV replicon FRET / luciferase assay; type: cell-based; settings: 50% reduction in FRET or luciferase activity
Procedure: FRET Assay Preparation. The HCV FRET screening assay was performed in 96-well cell culture plates. The FRET peptide (Anaspec, Inc.) (Taliani et al., Anal. Biochem. 1996, 240, 60-67) contains a fluorescence donor, EDANS, near one end of the peptide and an acceptor, DABCYL, near the other end. The fluorescence of the peptide is quenched by […] resonance energy transfer (RET) between the donor and the acceptor, but as the NS3 protease cleaves the peptide the products are released from RET quenching and the fluorescence of the donor becomes apparent. The assay reagent was made as follows: 5× cell Luciferase cell culture lysis reagent from Promega (#E153A) diluted to 1× with dH2O, NaCl added to 150 mM final, the FRET peptide diluted to 20 μM final from a 2 mM stock.
To prepare plates, HCV replicon cells, with or without a Renilla luciferase reporter gene, were trypsinized and plated in a 96-well plate with titrated test compounds added in columns 3 through 12; columns 1 and 2 contained a control compound (HCV control inhibitor), and the bottom row contained cells with DMSO only. The plates were then placed in a CO2 incubator at 37° C.
Assays. Subsequent to addition of the test compounds described above (FRET Assay Preparation), at various times the plate was removed and Alamar blue solution (Trek Diagnostics, #00-100) was added to measure cellular toxicity. After reading in a Cytoflour 4000 instrument (PE Biosystems), plates were rinsed with PBS and then used for FRET assay by the addition of 30 ul of the FRET peptide assay reagent described above (FRET Assay Preparation) per well. The plate was then placed into the Cytoflour 4000 instrument which had been set to 340 excite/490 emission, automatic mode for up to 20 cycles and the plate read in a kinetic mode. Typically, the signal to noise using an endpoint analysis after the reads was at least three-fold. Alternatively, after Alamar blue reading, plates were rinsed with PBS, then used for luciferase assay using the Promega Dual-Glo Luciferase Assay System or the Promega EnduRen Live Cell Substrate assay.
Compound analysis was performed by quantification of the relative HCV replicon inhibition and the relative cytotoxicity values. To calculate cytoxicity values, the average Alamar Blue fluorescence signals from the control wells were set as 100% non-toxic. The individual signals in each of the compound test wells were then divided by the average control signal and multiplied by 100% to determine […]. To calculate the HCV replicon inhibition values, an average background value was obtained from the two wells containing the highest amount of HCV control inhibitor at the end of the assay period. These numbers were similar to those obtained from naïve Huh-7 cells. The background numbers were then subtracted from the average signal obtained from the control wells and this number was used as 100% activity. The individual signals in each of the compound test wells were then divided by the averaged control values after background subtraction and multiplied by 100% to determine percent activity. EC50 values were calculated as the concentration which caused a 50% reduction in FRET or luciferase activity. The two numbers generated for the compound plate, percent cytoxicity and percent activity, were used to determine compounds of interest for further analysis.

[2] = target: T1, HCV NS5B (Hepatitis C virus genotype 1b, UniProt Q9WMX2); assay: HCV NS5B RdRp enzyme assay (standard or modified); type: biochemical; settings: HCV NS5B RdRp genotype 1b enzyme; standard or modified assay not stated
T1 construct: The protein was expressed with an 18 amino acid C-terminal truncation to enhance the solubility; made in house; host or cells: E. coli BL21(DE3), pET21a
Procedure: HCV NS5B RdRp cloning, expression, and purification. The cDNA encoding the NS5B protein of HCV, genotype 1b, was cloned into the pET21a expression vector. The protein was expressed with an 18 amino acid C-terminal truncation to enhance the solubility. The E. coli competent cell line BL21(DE3) was used for expression of the protein. Cultures were grown at 37° C. for ˜4 hours until the cultures reached an optical density of 2.0 at 600 nm. The cultures were cooled to 20° C. and induced with 1 mM IPTG. Fresh ampicillin was added to a final concentration of 50 μg/ml and the cells were grown overnight at 20° C.
Cell pellets (3 L) were lysed for purification to yield 15-24 mgs of purified NS5B. The lysis buffer consisted of 20 mM Tris-HCl, pH 7.4, 500 mM NaCl, 0.5% triton X-100, 1 mM DTT, 1 mM EDTA, 20% glycerol, 0.5 mg/ml lysozyme, 10 mM MgCl2, 15 ug/ml deoxyribonuclease I, and Complete TM protease inhibitor tablets (Roche). After addition of the lysis buffer, frozen cell pellets were resuspended using a tissue homogenizer. To reduce the viscosity of the sample, aliquots of the lysate were sonicated on ice using a microtip attached to a Branson sonicator. The sonicated lysate was centrifuged at 100,000×g for 1 hr at 4° C. and filtered through a 0.2 μm filter unit (Corning).
The protein was purified using two sequential chromatography steps: Heparin sepharose CL-6B and polyU sepharose 4B (Pharmacia). The chromatography buffers were identical to the lysis buffer but contained no lysozyme, deoxyribonuclease I, MgCl2 or protease inhibitor and the NaCl concentration of the buffer was adjusted according to the requirements for charging the protein onto the column. Each column was eluted with a NaCl gradient which varied in length from 5-50 column volumes depending on the column type. After the final chromatography step, the resulting purity of the enzyme is >90% based on SDS-PAGE analysis. The enzyme was aliquoted and stored at −80° C.
Standard HCV NS5B RdRp enzyme assay. HCV RdRp genotype 1b assays were run in a final volume of 60 μl in 96 well plates (Corning 3600). The assay buffer is composed of 20 mM Hepes, pH 7.5, 2.5 mM KCl, 2.5 mM MgCl2, 1 mM DTT, 1.6 U RNAse inhibitor (Promega N2515), 0.01 mg/ml BSA (Sigma B6917), and 2% glycerol. All compounds were serially diluted (3-fold) in DMSO and diluted further in water such that the final concentration of DMSO in the assay was 2%. HCV RdRp genotype 1b enzyme was used at a final concentration of 28 nM. A polyA template was used at 6 nM, and a biotinylated oligo-dT12 primer was used at 180 nM final concentration. Template was obtained commercially (Amersham 27-4110). Biotinylated primer was prepared by Sigma Genosys. 3H-UTP was used at 0.6 μCi (0.29 μM total UTP). Reactions were initiated by the addition of enzyme, incubated at 30° C. for 60 min, and stopped by adding 25 μl of 50 mM EDTA containing SPA beads (4 μg/μl, Amersham RPNQ 0007). Plates were read on a Packard Top Count NXT after >1 hr incubation at room temperature.
Modified HCV NS5B RdRp enzyme assay. A modified enzyme assay was performed essentially as described for the standard enzyme assay except for the following: The biotinylated oligo dT12 primer was precaptured on streptavidin-coated SPA beads by mixing primer and beads in assay buffer and incubating at room temperature for one hour. Unbound primer was removed after centrifugation. The primer-bound beads were resuspended in 20 mM Hepes buffer, pH 7.5 and used in the assay at final concentrations of 20 nM primer and 0.67 μg/μl beads. Order of addition in the assay: enzyme (1.75 nM) was added to diluted compound followed by the addition of a mixture of template (0.36 nM), 3H-UTP (0.6 μCi, 0.29 μM), and primer-bound beads, to initiate the reaction; concentrations given are final. Reactions were allowed to proceed for 4 hours at 30° C.
IC50 values for compounds were determined using seven different [I]. […]

T1 sequence (Q9WMX2 2420-2992): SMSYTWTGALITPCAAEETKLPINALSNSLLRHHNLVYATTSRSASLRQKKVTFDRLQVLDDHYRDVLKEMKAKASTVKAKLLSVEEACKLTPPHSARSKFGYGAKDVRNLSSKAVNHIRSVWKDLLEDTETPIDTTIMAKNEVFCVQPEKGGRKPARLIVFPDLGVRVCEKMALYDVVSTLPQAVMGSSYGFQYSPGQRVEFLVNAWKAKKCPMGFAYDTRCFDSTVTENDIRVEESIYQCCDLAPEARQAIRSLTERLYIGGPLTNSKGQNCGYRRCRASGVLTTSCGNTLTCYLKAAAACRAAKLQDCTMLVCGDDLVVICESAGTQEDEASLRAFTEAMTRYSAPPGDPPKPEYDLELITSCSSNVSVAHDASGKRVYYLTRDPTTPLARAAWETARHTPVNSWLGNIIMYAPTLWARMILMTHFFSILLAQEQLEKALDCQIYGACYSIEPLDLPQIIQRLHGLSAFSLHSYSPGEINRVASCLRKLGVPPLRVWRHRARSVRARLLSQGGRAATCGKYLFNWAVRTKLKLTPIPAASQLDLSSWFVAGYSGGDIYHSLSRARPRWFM

Structure (SMILES)	EC50 ([1]; Hepatitis C virus)	IC50 [2]	EC50 [1]
COc1ccc2c(c1)C1CC1(C(=O)N1CC3CCCNC3C1)Cn1c-2c(C2CCCCC2)c2ccc(C(=O)NS(=O)(=O)N(C)C)cc21 (stereo not shown)	4.58 to 500 nM	4.58 to 500 nM	–
COc1ccc2c(c1)C1CC1(C(=O)N1CC3CNCC3C1)Cn1c-2c(C2CCCCC2)c2ccc(C(=O)NS(=O)(=O)C3CC3)cc21 (stereo not shown)	> 1000 nM	4.58 to 500 nM	–
COc1ccc2c(c1)C1CC1(C(=O)N1CCN3CCCC3C1)Cn1c-2c(C2CCCCC2)c2ccc(C(=O)NS(N)(=O)=O)cc21 (stereo not shown)	4.58 to 500 nM	4.58 to 500 nM	–
COc1ccc2c(c1)C1CC1(C(=O)N1CC3CCCN(C(C)=O)C3C1)Cn1c-2c(C2CCCCC2)c2ccc(C(=O)NS(=O)(=O)C3CC3)cc21 (stereo not shown) [drawing 67]	4.58 to 500 nM	4.58 to 500 nM	–
COc1ccc2c(c1)C1CC1(C(=O)N1CC3CCCN(C(=O)OC(C)(C)C)C3C1)Cn1c-2c(C2CCCCC2)c2ccc(C(=O)NS(=O)(=O)C3CC3)cc21 (stereo not shown)	4.58 to 500 nM	4.58 to 500 nM	–
COc1ccc2c(c1)C1CC1(C(=O)N1CCN3CCC[C@@H]3C1)Cn1c-2c(C2CCCCC2)c2ccc(C(=O)NS(=O)(=O)N3CCOCC3)cc21 (stereo partly shown)	4.58 to 500 nM	4.58 to 500 nM	–
COc1ccc2c(c1)C1CC1(C(=O)N1CCCC3CN(Cc4ccccc4)CC31)Cn1c-2c(C2CCCCC2)c2ccc(C(=O)NS(=O)(=O)N(C)C)cc21 (stereo not shown)	4.58 to 500 nM	4.58 to 500 nM	–
COc1ccc2c(c1)C1CC1(C(=O)N1CC3CNCC3C1)Cn1c-2c(C2CCCCC2)c2ccc(C(=O)NS(N)(=O)=O)cc21 (stereo not shown)	> 500 nM	4.58 to 500 nM	–
CCS(=O)(=O)NC(=O)c1ccc2c(C3CCCCC3)c3n(c2c1)CC1(C(=O)N2CCN4CCCC4C2)CC1c1cc(OC)ccc1-3 (stereo not shown)	4.58 to 500 nM	4.58 to 500 nM	–
COc1ccc2c(c1)C1CC1(C(=O)N1CCC[C@H]3CNC[C@H]31)Cn1c-2c(C2CCCCC2)c2ccc(C(=O)NS(=O)(=O)N(C)C)cc21 (stereo partly shown)	4.58 to 500 nM	4.58 to 500 nM	–
COc1ccc2c(c1)C1CC1(C(=O)N1CC3CN(C(C)=O)CC3C1)Cn1c-2c(C2CCCCC2)c2ccc(C(=O)NS(=O)(=O)C3CC3)cc21 (stereo not shown)	4.58 to 500 nM	4.58 to 500 nM	–
COc1ccc2c(c1)C1CC1(C(=O)N1CC3CN(Cc4ccccc4)CC3C1)Cn1c-2c(C2CCCCC2)c2ccc(C(=O)NS(N)(=O)=O)cc21 (stereo not shown)	4.58 to 500 nM	4.58 to 500 nM	–
COc1ccc2c(c1)C1CC1(C(=O)N1CCN3CCCCC3C1)Cn1c-2c(C2CCCCC2)c2ccc(C(=O)NS(=O)(=O)N(C)C)cc21 (stereo not shown)	4.58 to 500 nM	4.58 to 500 nM	–
COc1ccc2c(c1)C1CC1(C(=O)N1CC3CCCN(C(C)=O)C3C1)Cn1c-2c(C2CCCCC2)c2ccc(C(=O)NS(=O)(=O)C3CC3)cc21 (stereo not shown) [drawing 68]	–	4.58 to 500 nM	4.58 to 500 nM
